According to PubChem BioAssay (NCI):
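Results reflect a 48-hour exposure of cells in 96-well plates to compound at five concentrations. The concentration for 50% growth inhibition is given as GI50. Definition used: TGI = concentration required for complete inhibition of growth.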

How the values were obtained:
Assay in all cases: DTP human tumour cell line panel, 48 h
HOP-92 NSCLC = tested on: HOP-92 NSCLC
UO-31 renal = tested on: UO-31 renal
LOX IMVI melanoma = tested on: LOX IMVI melanoma
MALME-3M melanoma = tested on: MALME-3M melanoma
MDA-MB-231 breast = tested on: MDA-MB-231 breast
786-0 renal = tested on: 786-0 renal
SK-MEL-5 melanoma = tested on: SK-MEL-5 melanoma
SN12C renal = tested on: SN12C renal
COLO 205 colon = tested on: COLO 205 colon
SK-MEL-2 melanoma = tested on: SK-MEL-2 melanoma
SR leukemia = tested on: SR leukemia
SF-295 CNS = tested on: SF-295 CNS
MCF7 breast = tested on: MCF7 breast
T-47D breast = tested on: T-47D breast
CAKI-1 renal = tested on: CAKI-1 renal
HT29 colon = tested on: HT29 colon
U251 CNS = tested on: U251 CNS
DU-145 prostate = tested on: DU-145 prostate
CCRF-CEM leukemia = tested on: CCRF-CEM leukemia
ACHN renal = tested on: ACHN renal
A498 renal = tested on: A498 renal
KM12 colon = tested on: KM12 colon
SK-MEL-28 melanoma = tested on: SK-MEL-28 melanoma
UACC-257 melanoma = tested on: UACC-257 melanoma
OVCAR-5 ovarian = tested on: OVCAR-5 ovarian
NCI-H522 lung = tested on: NCI-H522 lung
HL-60(TB) leukemia = tested on: HL-60(TB) leukemia
NCI/ADR-RES ovarian = tested on: NCI/ADR-RES ovarian
TK-10 renal = tested on: TK-10 renal
HOP-62 NSCLC = tested on: HOP-62 NSCLC
SNB-19 CNS = tested on: SNB-19 CNS
SF-268 CNS = tested on: SF-268 CNS
SW-620 colon = tested on: SW-620 colon
HCT-116 colon = tested on: HCT-116 colon
EKVX NSCLC = tested on: EKVX NSCLC
MDA-MB-435 = tested on: MDA-MB-435
MOLT-4 leukemia = tested on: MOLT-4 leukemia
SK-OV-3 ovarian = tested on: SK-OV-3 ovarian
SNB-75 CNS = tested on: SNB-75 CNS
SF-539 CNS = tested on: SF-539 CNS
NCI-H226 lung = tested on: NCI-H226 lung
IGROV1 ovarian = tested on: IGROV1 ovarian
A549 NSCLC = tested on: A549 NSCLC
NCI-H23 lung = tested on: NCI-H23 lung
M14 melanoma = tested on: M14 melanoma
BT-549 breast = tested on: BT-549 breast
PC-3 prostate = tested on: PC-3 prostate
OVCAR-4 ovarian = tested on: OVCAR-4 ovarian
OVCAR-8 ovarian = tested on: OVCAR-8 ovarian
HS 578T breast = tested on: HS 578T breast
NCI-H460 lung = tested on: NCI-H460 lung
HCC-2998 colon = tested on: HCC-2998 colon
UACC-62 melanoma = tested on: UACC-62 melanoma
HCT-15 colon = tested on: HCT-15 colon
RXF 393 renal = tested on: RXF 393 renal
OVCAR-3 ovarian = tested on: OVCAR-3 ovarian
RPMI-8226 leukemia = tested on: RPMI-8226 leukemia

Structure (SMILES): Cc1nc2cc(NC(=O)CN3CCN(CCN4C(=O)c5cccc6cccc(c56)C4=O)CC3)ccc2s1
- GI50 (HOP-92 NSCLC): 2.13 µM
- TGI (HOP-92 NSCLC): 9.05 µM
- GI50 (UO-31 renal): 3.07 µM
- TGI (UO-31 renal): > 100 µM
- GI50 (LOX IMVI melanoma): 4.15 µM
- TGI (LOX IMVI melanoma): 15.6 µM
- GI50 (MALME-3M melanoma): 4.99 µM
- TGI (MALME-3M melanoma): > 100 µM
- GI50 (MDA-MB-231 breast): 11.7 µM
- TGI (MDA-MB-231 breast): > 100 µM
- GI50 (786-0 renal): 5.91 µM
- TGI (786-0 renal): 19.1 µM
- GI50 (SK-MEL-5 melanoma): 2.73 µM
- TGI (SK-MEL-5 melanoma): 10.9 µM
- GI50 (SN12C renal): 5.22 µM
- TGI (SN12C renal): > 100 µM
- GI50 (COLO 205 colon): 4.46 µM
- TGI (COLO 205 colon): 89.6 µM
- GI50 (SK-MEL-2 melanoma): 6.62 µM
- TGI (SK-MEL-2 melanoma): 24.1 µM
- GI50 (SR leukemia): 1.19 µM
- TGI (SR leukemia): > 100 µM
- GI50 (SF-295 CNS): 3.48 µM
- TGI (SF-295 CNS): > 100 µM
- GI50 (MCF7 breast): 4.08 µM
- TGI (MCF7 breast): 15.5 µM
- GI50 (T-47D breast): 3.07 µM
- TGI (T-47D breast): 17.9 µM
- GI50 (CAKI-1 renal): 4.32 µM
- TGI (CAKI-1 renal): > 100 µM
- GI50 (HT29 colon): 3.39 µM
- TGI (HT29 colon): 19.6 µM
- GI50 (U251 CNS): 4.37 µM
- TGI (U251 CNS): 18.9 µM
- GI50 (DU-145 prostate): 5.21 µM
- TGI (DU-145 prostate): 17.1 µM
- GI50 (CCRF-CEM leukemia): 2.94 µM
- TGI (CCRF-CEM leukemia): 95.9 µM
- GI50 (ACHN renal): 3.5 µM
- TGI (ACHN renal): 25 µM
- GI50 (A498 renal): 5.63 µM
- TGI (A498 renal): 38.3 µM
- GI50 (KM12 colon): 4.95 µM
- TGI (KM12 colon): 18.4 µM
- GI50 (SK-MEL-28 melanoma): 11.1 µM
- TGI (SK-MEL-28 melanoma): 23.1 µM
- GI50 (UACC-257 melanoma): 5.83 µM
- TGI (UACC-257 melanoma): > 100 µM
- GI50 (OVCAR-5 ovarian): 14.1 µM
- TGI (OVCAR-5 ovarian): > 100 µM
- GI50 (NCI-H522 lung): 3.01 µM
- TGI (NCI-H522 lung): 13.8 µM
- GI50 (HL-60(TB) leukemia): 6.36 µM
- TGI (HL-60(TB) leukemia): 26.3 µM
- GI50 (NCI/ADR-RES ovarian): 4.05 µM
- TGI (NCI/ADR-RES ovarian): 29.5 µM
- GI50 (TK-10 renal): 7.91 µM
- TGI (TK-10 renal): 21.7 µM
- GI50 (HOP-62 NSCLC): 3.83 µM
- TGI (HOP-62 NSCLC): 15.1 µM
- GI50 (SNB-19 CNS): 6.23 µM
- TGI (SNB-19 CNS): 21.4 µM
- GI50 (SF-268 CNS): 5.01 µM
- TGI (SF-268 CNS): 24.9 µM
- GI50 (SW-620 colon): 2.6 µM
- TGI (SW-620 colon): 24.3 µM
- GI50 (HCT-116 colon): 2.94 µM
- TGI (HCT-116 colon): 14.7 µM
- GI50 (EKVX NSCLC): 7.88 µM
- TGI (EKVX NSCLC): > 100 µM
- GI50 (MDA-MB-435): 4.6 µM
- TGI (MDA-MB-435): 19.4 µM
- GI50 (MOLT-4 leukemia): 2.52 µM
- TGI (MOLT-4 leukemia): 22.2 µM
- GI50 (SK-OV-3 ovarian): 7.65 µM
- TGI (SK-OV-3 ovarian): > 100 µM
- GI50 (SNB-75 CNS): 3.51 µM
- TGI (SNB-75 CNS): 21.4 µM
- GI50 (SF-539 CNS): 7.59 µM
- TGI (SF-539 CNS): > 100 µM
- GI50 (NCI-H226 lung): 4.67 µM
- TGI (NCI-H226 lung): 73.9 µM
- GI50 (IGROV1 ovarian): 6.05 µM
- TGI (IGROV1 ovarian): > 100 µM
- GI50 (A549 NSCLC): 4.14 µM
- TGI (A549 NSCLC): 19.2 µM
- GI50 (NCI-H23 lung): 6.6 µM
- TGI (NCI-H23 lung): 38.2 µM
- GI50 (M14 melanoma): 8.76 µM
- TGI (M14 melanoma): 23 µM
- GI50 (BT-549 breast): 4.86 µM
- TGI (BT-549 breast): 24.1 µM
- GI50 (PC-3 prostate): 4.5 µM
- TGI (PC-3 prostate): > 100 µM
- GI50 (OVCAR-4 ovarian): 5.33 µM
- TGI (OVCAR-4 ovarian): > 100 µM
- GI50 (OVCAR-8 ovarian): 2.77 µM
- TGI (OVCAR-8 ovarian): 19.4 µM
- GI50 (HS 578T breast): 6.53 µM
- TGI (HS 578T breast): 52.5 µM
- GI50 (NCI-H460 lung): 3.44 µM
- TGI (NCI-H460 lung): 13.1 µM
- GI50 (HCC-2998 colon): 6.66 µM
- TGI (HCC-2998 colon): > 100 µM
- GI50 (UACC-62 melanoma): 4.98 µM
- TGI (UACC-62 melanoma): 17.6 µM
- GI50 (HCT-15 colon): 3.58 µM
- TGI (HCT-15 colon): 16.5 µM
- GI50 (RXF 393 renal): 5.46 µM
- TGI (RXF 393 renal): 25.4 µM
- GI50 (OVCAR-3 ovarian): 7.91 µM
- TGI (OVCAR-3 ovarian): 20.7 µM
- GI50 (RPMI-8226 leukemia): 2.91 µM
- TGI (RPMI-8226 leukemia): 15.2 µM
